Assay results: patent US9981909B2 (Janssen Pharmaceutica NV, priority 2008, dated 2018)
Structures can show the parent of a compound that is named as a salt.

Target: rat 5-HT7 receptor (Rattus norvegicus (Rat), UniProt P32305)
Assay: r5-HT7 binding assay, competitive radioligand binding with [3H]5-CT
Conditions: rat 5-HT7 receptor, HEK-293 membranes
Description: Receptor binding was performed using membrane fractions prepared from the HEK-293 cell line recombinantly expressing rat 5-HT7 receptors (NCBI accession NM_022938). Compound affinity for the rat 5-HT7 receptor subtype was evaluated by competitive radioligand binding assays using 5-carboxamido[^3H]tryptamine ([^3H]5-CT) (Amersham Biosciences, cat. 90000403) detection. HitHunter™ cAMP assays are in-vitro based competitive immunoassays. The assay was performed on the HEK-293 cell line stably transfected with r5-HT7 receptor. Cells were pre-incubated with test compounds for 10 minutes. For antagonist testing, the cells were then challenged with 100 nM 5-CT for 20 minutes. Cells were then lysed and cAMP measured according to manufacturers protocol (Amersham, cat. NET791250UC) or [^3H]mesulergine (Amersham, cat. TRK1041). The assay was performed on membranes prepared from HEK-293 cells stably transfected with h5-HT6. Following centrifugation, membranes were resuspended and incubated for 60 min at room temperature with 1.7 nM [^3H]LSD in the presence of increasing concentration of test compounds. Nonspecific binding was defined in the presence of 10 μM clozapine (Tocris, cat. TRK1068). Homogenized HEK-293 membranes expressing the human SERT were incubated in 50 mM Tris-HCl (pH 7.5), 120 mM NaCl, 5 mM KCl with [^3H]-citalopram (3 nM) with or without test compounds. Nonspecific binding was determined in the presence of 10 μM fluoxetine. Radioactivity readouts and Ki values were performed as previously described for r5-HT7. […] Compounds were assayed in their free form or as salts, as indicated in the Examples section above.

rat 5-HT7 receptor, sequence (P32305 1-435): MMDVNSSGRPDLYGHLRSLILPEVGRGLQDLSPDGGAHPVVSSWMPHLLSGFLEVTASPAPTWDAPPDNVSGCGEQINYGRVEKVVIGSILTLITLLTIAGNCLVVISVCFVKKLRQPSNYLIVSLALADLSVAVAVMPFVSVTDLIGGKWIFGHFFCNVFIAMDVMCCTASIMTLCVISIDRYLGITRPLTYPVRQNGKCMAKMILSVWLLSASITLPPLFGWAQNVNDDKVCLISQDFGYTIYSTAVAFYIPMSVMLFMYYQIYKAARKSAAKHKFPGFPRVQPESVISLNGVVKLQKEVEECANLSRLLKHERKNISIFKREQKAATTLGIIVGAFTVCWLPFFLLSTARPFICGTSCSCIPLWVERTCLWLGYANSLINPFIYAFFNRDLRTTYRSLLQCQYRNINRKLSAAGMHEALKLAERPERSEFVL

| Ki [nM] | Structure (SMILES) |
| --- | --- |
| 190 | CC(C)N1CC(Oc2ccc(Br)cc2OCc2cccc(Cl)c2)C1 [Example 24, 3-[4-Bromo-2-(3-chloro-benzyloxy)-phenoxy]-1-isopropyl-azetidine] |
| 105 | Cc1cc(COc2ccc(Cl)cc2OC2CNC2)no1 [Example 30, 3-[2-(Azetidin-3-yloxy)-4-chloro-phenoxymethyl]-5-methyl-isoxazole] |
| 130 | FC(F)(F)Oc1ccc(COc2ccc(Cl)cc2OC2CNC2)cc1Cl [Example 41, 3-[5-Chloro-2-(3-chloro-4-trifluoromethoxy-benzyloxy)-phenoxy]-azetidine] |
| 87 | N#Cc1ccc(COc2ccc(Cl)cc2OC2CNC2)cc1 [Example 44, 4-[2-(Azetidin-3-yloxy)-4-chloro-phenoxymethyl]-benzonitrile] |
| 102 | FC(F)(F)Sc1ccc(COc2ccc(Cl)cc2OC2CNC2)cc1 [Example 46, 3-[5-Chloro-2-(4-trifluoromethylsulfanyl-benzyloxy)-phenoxy]-azetidine] |
| 88 | Fc1cc(C(F)(F)F)ccc1COc1ccc(Cl)cc1OC1CNC1 [Example 48, 3-[5-Chloro-2-(2-fluoro-4-trifluoromethyl-benzyloxy)-phenoxy]-azetidine] |
| 171 | CCOC(=O)c1ccc(COc2ccc(Cl)cc2OC2CNC2)o1 [Example 55, 5-[2-(Azetidin-3-yloxy)-4-chloro-phenoxymethyl]-furan-2-carboxylic acid ethyl ester] |
| 9000 | CS(=O)(=O)c1cc(Cl)ccc1COc1ccc(Cl)cc1OC1CNC1 [Example 56, 3-[5-Chloro-2-(4-chloro-2-methanesulfonyl-benzyloxy)-phenoxy]-azetidine] |
| 42 | Fc1ccc(COc2ccc(Cl)cc2OC2CNC2)c(F)c1 [Example 57, 3-[5-Chloro-2-(2,4-difluoro-benzyloxy)-phenoxy]-azetidine] |
| 120 | Clc1cccc(COc2ccc(Cl)cc2O[C@@H]2CCNC2)c1 [Example 58, (R)-3-[5-Chloro-2-(3-chloro-benzyloxy)-phenoxy]-pyrrolidine] |
| 250 | Clc1ccc(OCc2ccccc2Cl)c(O[C@@H]2CCNC2)c1 [Example 60, (R)-3-[5-Chloro-2-(2-chloro-benzyloxy)-phenoxy]-pyrrolidine] |
| 36 | CN1CC[C@@H](Oc2cc(Cl)ccc2OCc2ccccc2Cl)C1 [Example 61, (R)-3-[5-Chloro-2-(2-chloro-benzyloxy)-phenoxy]-1-methyl-pyrrolidine] |
| 34 | Clc1ccc(OCc2ccccc2)c(OC2CCNCC2)c1 [Example 62, 4-(2-Benzyloxy-5-chloro-phenoxy)-piperidine] |
| 11 | Brc1ccc(OCC2CCCCC2)c(OC2CNC2)c1 [Example 74, 3-(5-Bromo-2-cyclohexylmethoxy-phenoxy)-azetidine] |
| 9000 | O=C(O)c1cc(COc2ccc(Cl)cc2OC2CNC2)oc1C(F)(F)F [Example 75, 5-[2-(Azetidin-3-yloxy)-4-chloro-phenoxymethyl]-2-trifluoromethyl-furan-3-carboxylic acid trifluoroacetate] |
| 5000 | CCOC(=O)c1cc(COc2ccc(Cl)cc2OC2CNC2)oc1C(F)(F)F [Example 76, 5-[2-(Azetidin-3-yloxy)-4-chloro-phenoxymethyl]-2-trifluoromethyl-furan-3-carboxylic acid ethyl ester] |
| 710 | Cc1cc(COc2ccc(Cl)cc2OC2CNC2)c(C(F)(F)F)o1 [Example 78, 3-[5-Chloro-2-(5-methyl-2-trifluoromethyl-furan-3-ylmethoxy)-phenoxy]-azetidine] |
| > 10000 | Cc1nc(C(F)(F)F)ccc1COc1ccc(Cl)cc1OC1CNC1 [Example 80, 3-[2-(Azetidin-3-yloxy)-4-chloro-phenoxymethyl]-2-methyl-6-trifluoromethyl-pyridine] |
| 198 | FC(F)(F)c1ccc(COc2ccc(Cl)cc2OC2CNC2)cn1 [Example 82, 5-[2-(Azetidin-3-yloxy)-4-chloro-phenoxymethyl]-2-trifluoromethyl-pyridine] |
| 240 | Clc1ccc(OCc2cnco2)c(OC2CNC2)c1 [Example 87, 5-[2-(Azetidin-3-yloxy)-4-chloro-phenoxymethyl]-oxazole] |
| 681 | Clc1ccc(OCc2nccs2)c(OC2CNC2)c1 [Example 88, 2-[2-(Azetidin-3-yloxy)-4-chloro-phenoxymethyl]-thiazole] |
| 27 | C[C@H](Oc1ccc(Cl)cc1OC1CN(C)C1)c1cccc(C(F)(F)F)c1 [Example 103, (S)-3-[5-Chloro-2-[1-(3-trifluoromethyl-phenyl)-ethoxy]-phenoxy]-1-methyl-azetidine] |

| Ki [nM] | Structure (SMILES) |
| --- | --- |
| 166 | C[C@H](Oc1ccc(Cl)cc1OC1CN(Cc2ccccc2)C1)c1cccc(C(F)(F)F)c1 [Example 104, (S)-1-Benzyl-3-[5-chloro-2-[1-(3-trifluoromethyl-phenyl)-ethoxy]-phenoxy]-azetidine] |
| 456 | CC(Oc1ccc(Cl)cc1OC1CNC1)c1cncs1 (centres unmarked) [Example 132, 5-[1-[2-(Azetidin-3-yloxy)-4-chloro-phenoxy]-ethyl]-thiazole] |
| 591 | CC(Oc1ccc(Cl)cc1OC1CNC1)c1nccs1 (centres unmarked) [Example 133, 2-[1-[2-(Azetidin-3-yloxy)-4-chloro-phenoxy]-ethyl]-thiazole] |
| 3830 | Cc1nc(C)c(C(C)Oc2ccc(Cl)cc2OC2CNC2)s1 (centres unmarked) [Example 134, 5-[1-[2-(Azetidin-3-yloxy)-4-chloro-phenoxy]-ethyl]-2,4-dimethyl-thiazole] |
| 189 | C[C@@H](Oc1ccc(Cl)cc1OC1CCCNC1)c1cccc(C(F)(F)F)c1 (stereo partly drawn) [Example 139, (R,S)-3-[5-Chloro-2-[1-((R)-3-trifluoromethyl-phenyl)-ethoxy]-phenoxy]-piperidine] |
| 215 | FCC(Oc1ccc(Cl)cc1OC1CNC1)c1ccccc1 (centres unmarked) [Example 143, 3-[5-Chloro-2-(2-fluoro-1-phenyl-ethoxy)-phenoxy]-azetidine] |
| 211 | CCC(Oc1ccc(Cl)cc1OC1CNC1)c1ccccc1 (centres unmarked) [Example 147, 3-[5-Chloro-2-(1-phenyl-propoxy)-phenoxy]-azetidine] |
| 2000 | OCC(Oc1ccc(Cl)cc1OC1CNC1)c1ccccc1 (centres unmarked) [Example 148, 2-[2-(Azetidin-3-yloxy)-4-chloro-phenoxy]-2-phenyl-ethanol] |
| > 10000 | O=C(O)C(Oc1ccc(Cl)cc1OC1CNC1)c1ccccc1 (centres unmarked) [Example 149, [2-(Azetidin-3-yloxy)-4-chloro-phenoxy]-phenyl-acetic acid hydrochloride] |
| 5000 | CC(C)(C)c1ccc2c(c1)CCC2Oc1ccc(Br)cc1OC1CNC1 (centres unmarked) [Example 162, 3-[5-Bromo-2-(5-tert-butyl-indan-1-yloxy)-phenoxy]-azetidine] |
| 766 | Clc1ccc(OCC2CCOC2)c(OC2CNC2)c1 (centres unmarked) [Example 163, 3-[5-Chloro-2-(tetrahydro-furan-3-ylmethoxy)-phenoxy]-azetidine] |
| 1270 | Clc1ccc(OCC2CCCO2)c(OC2CNC2)c1 (centres unmarked) [Example 166, 3-[5-Chloro-2-(tetrahydro-furan-2-ylmethoxy)-phenoxy]-azetidine] |
| 167 | Clc1ccc(OCC2COc3ccccc3C2)c(OC2CNC2)c1 (centres unmarked) [Example 167, 3-[5-Chloro-2-(chroman-3-ylmethoxy)-phenoxy]-azetidine] |
| 119 | Clc1ccc(OCC2Cc3ccccc3O2)c(OC2CNC2)c1 (centres unmarked) [Example 169, 3-[5-Chloro-2-(2,3-dihydro-benzofuran-2-ylmethoxy)-phenoxy]-azetidine] |
| 5000 | Cc1cc(COc2ccc(Cl)cc2OC2CNC2)n(C)n1 [Example 170, 5-[2-(Azetidin-3-yloxy)-4-chloro-phenoxymethyl]-1,3-dimethyl-1H-pyrazole] |
| 5000 | Fc1cccc(COc2ccc(Br)cc2OC2CN(c3ccccc3)C2)c1 [Example 172, 3-[5-Bromo-2-(3-fluoro-benzyloxy)-phenoxy]-1-phenyl-azetidine] |
| 360 | ON=C1c2ccccc2CC1Oc1ccc(Cl)cc1OC1CNC1 (centres unmarked) [Example 179, 2-[2-(Azetidin-3-yloxy)-4-chloro-phenoxy]-indan-1-one oxime] |
| 813 | CON=C1c2ccccc2CC1Oc1ccc(Cl)cc1OC1CNC1 (centres unmarked) [Example 180, 2-[2-(Azetidin-3-yloxy)-4-chloro-phenoxy]-indan-1-one O-methyl-oxime] |
| 110 | O=C(COc1ccc(Cl)cc1OC1CNC1)c1ccc(Cl)cc1 [Example 183, 2-[2-(Azetidin-3-yloxy)-4-chloro-phenoxy]-1-(4-chloro-phenyl)-ethanone] |
| 138 | Clc1cccc(C2(COc3ccc(Cl)cc3OC3CNC3)CCC2)c1 [Example 189, 3-[5-Chloro-2-[1-(3-chloro-phenyl)-cyclobutylmethoxy]-phenoxy]-azetidine] |
| 1420 | Fc1cc(Cl)cc(OC2CNC2)c1OCc1ccccc1 [Example 197, 3-(2-Benzyloxy-5-chloro-3-fluoro-phenoxy)-azetidine] |

| Structure (SMILES) | Ki [nM] |
| --- | --- |
| Clc1ccc(OC2CCCC2)c(OC2CNC2)c1 [Example 72, 3-(5-Chloro-2-cyclopentyloxy-phenoxy)-azetidine trifluoroacetate] | 270 |
